Results on 14 compounds are retold here after ChEMBL document CHEMBL3994657, “3,4-Dihydroquinazoline derivatives inhibit the activities of cholinesterase enzymes” (Bioorg Med Chem Lett, 2017).

As usually defined, the IC50 is the midpoint of a concentration-inhibition curve. High values mean weaker potency in that assay, low ones greater potency in that assay.

Assay [1] has as its target Acetylcholinesterase (Electrophorus electricus, UniProt O42275). The assay is described as follows: Inhibition of electric eel AChE using acetylthiocholine iodide as substrate preincubated for 20 mins followed by substrate addition measured for 5 mins by spectrophotometry based Ellman method.
The target of assay [2] is T1, Cholinesterase (Equus caballus, UniProt P81908). Put plainly: Inhibition of equine serum BCHE using butyrylthiocholine iodide as substrate preincubated for 20 mins followed by substrate addition measured for 5 mins by spectrophotometry based Ellman method. For orientation: Ellman's reagent forms a yellow product with free thiols.
Assay [3] deals with T1, Cholinesterase. Put plainly: Mixed/noncompetitive inhibition of equine serum BCHE using butyrylthiocholine iodide as substrate preincubated for 20 mins followed by substrate addition measured for 5 mins by Lineweaver-Burk plot analysis. As to conditions: read-out: Ki(app).
Assay [4] can be described thus: Selectivity ratio of IC50 for electric eel AChE to IC50 for equine serum BCHE.

T1 sequence (P81908 whole entry): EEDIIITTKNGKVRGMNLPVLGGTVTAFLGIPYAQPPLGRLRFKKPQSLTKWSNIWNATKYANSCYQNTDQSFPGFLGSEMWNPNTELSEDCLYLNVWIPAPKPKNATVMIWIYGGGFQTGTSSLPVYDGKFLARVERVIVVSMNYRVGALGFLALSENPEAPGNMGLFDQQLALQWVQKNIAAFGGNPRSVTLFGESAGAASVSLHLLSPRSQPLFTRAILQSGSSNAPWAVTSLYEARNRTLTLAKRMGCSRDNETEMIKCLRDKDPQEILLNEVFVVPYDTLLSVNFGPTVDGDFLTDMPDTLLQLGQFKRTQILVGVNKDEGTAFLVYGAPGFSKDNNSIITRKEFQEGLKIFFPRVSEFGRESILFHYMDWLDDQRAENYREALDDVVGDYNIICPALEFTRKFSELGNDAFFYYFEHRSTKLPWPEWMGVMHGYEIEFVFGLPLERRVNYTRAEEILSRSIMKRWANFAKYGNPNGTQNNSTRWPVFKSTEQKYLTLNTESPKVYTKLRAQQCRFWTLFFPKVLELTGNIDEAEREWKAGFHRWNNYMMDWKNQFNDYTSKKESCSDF
Sequence of Acetylcholinesterase (O42275 whole entry): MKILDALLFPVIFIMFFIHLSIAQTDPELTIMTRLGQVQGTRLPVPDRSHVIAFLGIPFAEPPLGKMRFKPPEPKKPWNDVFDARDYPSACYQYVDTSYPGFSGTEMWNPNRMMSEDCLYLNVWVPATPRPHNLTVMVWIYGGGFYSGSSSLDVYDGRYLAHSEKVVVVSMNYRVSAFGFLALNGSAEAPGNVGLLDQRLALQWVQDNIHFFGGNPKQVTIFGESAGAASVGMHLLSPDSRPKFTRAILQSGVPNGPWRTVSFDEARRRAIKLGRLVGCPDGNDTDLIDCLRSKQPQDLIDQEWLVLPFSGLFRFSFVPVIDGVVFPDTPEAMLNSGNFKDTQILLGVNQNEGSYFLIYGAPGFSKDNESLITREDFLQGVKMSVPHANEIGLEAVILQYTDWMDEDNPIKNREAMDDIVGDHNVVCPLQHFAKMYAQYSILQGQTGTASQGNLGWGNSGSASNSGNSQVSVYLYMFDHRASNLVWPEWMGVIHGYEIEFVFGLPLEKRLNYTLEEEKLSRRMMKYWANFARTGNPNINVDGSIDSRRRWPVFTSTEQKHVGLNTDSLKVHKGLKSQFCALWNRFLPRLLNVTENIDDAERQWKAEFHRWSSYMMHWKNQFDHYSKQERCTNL

As for `CN(C)CCCCCN(C)C1=Nc2ccccc2C(CC(=O)NCc2ccc(F)cc2)N1c1ccc(C2CCCCC2)cc1` (configuration not stated), the figures for the IC50 in assay [1] and in assay [2] were 4.4 µM and 0.4 µM, respectively.
As for `CN1CCN(C2=Nc3ccccc3C(CC(=O)NCc3ccccc3)N2c2ccccc2)CC1` (configuration not stated), the IC50 in assay [1] and in assay [2] was more than 10 µM throughout.
As to `O=C(CC1c2cccc(F)c2N=C(N2CCN(CCN3CCCC3)CC2)N1c1ccc(C2CCCCC2)cc1)NCc1ccc(F)cc1` (configuration not stated), the IC50 was more than 10 µM in assay [1] and 2.04 µM in assay [2].
The matching figures for `CN(C)CCCCCN(C)C1=Nc2ccccc2C(CC(=O)NCc2ccc(F)cc2)N1c1ccc(-c2ccc(F)cc2)cc1` (configuration not stated): 6.5 µM and 0.24 µM.
The matching figures for `O=C(CC1c2ccccc2N=C(N2CCN(CCN3CCCC3)CC2)N1c1ccc(-c2ccccc2)cc1)NCc1ccc(F)cc1` (configuration not stated): more than 10 µM and 1.47 µM.
The matching figures for `CN(C)CCN1CCN(C2=Nc3ccccc3C(CC(=O)NCc3ccc(F)cc3)N2c2ccc(-c3ccccc3)cc2)CC1` (configuration not stated): not below 10 µM and 2.6 µM.
For the compound `COc1ccc(CNC(=O)CC2c3ccccc3N=C(N3CCN(CCN(C)C)CC3)N2c2ccc(-c3ccccc3)cc2)cc1` (configuration not stated), the IC50 in assay [1] is more than 10 µM; in assay [2], 6.1 µM.
With `CN(CCCCCN)C1=Nc2ccccc2C(CC(=O)NCc2ccccc2)N1c1ccc(-c2ccccc2)cc1` (configuration not stated), the IC50 in assay [1] worked out at 4.1 µM; in assay [2], 5.3 µM.
On to `CN(C)CCCCCN(C)C1=Nc2ccccc2C(CC(=O)NCc2ccccc2)N1c1ccc(-c2ccccc2)cc1` (configuration not stated), for which the IC50 in assay [1] is not below 10 µM; in assay [2], 0.062 µM. For the same compound, in assay [3], the Ki turned out to be 0.051 µM. The Ratio IC50 in assay [4] came out at 161.
For `COC(=O)CC1c2ccccc2N=C(N2CCN(C)CC2)N1C1CCCCC1` (configuration not stated), the figures for the IC50 in assay [1] and in assay [2] were not below 10 µM and more than 10 µM, respectively.
For `CN(C)CCCCCN(C)C1=Nc2c(F)cc(F)cc2C(CC(=O)NCc2ccccc2)N1c1ccc(-c2ccccc2)cc1` (configuration not stated) the same measures were 1.2 µM and 0.38 µM.
As for `COC(=O)CC1c2ccccc2N=C(N(C)CCCCCN)N1c1ccc(-c2ccccc2)cc1` (configuration not stated), the IC50 in assay [1] is not below 10 µM; in assay [2] it was 0.14 µM.
For `CN(CCCCCN1CCCC1)C1=Nc2ccccc2C(CC(=O)NCc2ccccc2)N1c1ccc(-c2ccccc2)cc1` (configuration not stated), the IC50 came out at 6.6 µM in assay [1] and 0.045 µM in assay [2]. The Ki in assay [3] is 0.029 µM. Besides, in assay [4], the Ratio IC50 came to 146.
Consider `O=C(CC1c2ccccc2N=C(N2CCN(CCN3CCCC3)CC2)N1c1ccc(C2CCCCC2)cc1)NCc1ccc(F)cc1` (configuration not stated), for which the IC50 in assay [1] stood at 8 µM; in assay [2], 2.13 µM.
